Each structure is given as a SMILES string.

The target of the assay is T1, full-length recombinant human Btk protein (Homo sapiens, UniProt Q06187).
T1 construct: The full-length recombinant human Btk protein; purchased Invitrogen (Carlsbad, Calif.) Lot #619547Q (catalogue number not given)
T1 sequence (Q06187 whole entry): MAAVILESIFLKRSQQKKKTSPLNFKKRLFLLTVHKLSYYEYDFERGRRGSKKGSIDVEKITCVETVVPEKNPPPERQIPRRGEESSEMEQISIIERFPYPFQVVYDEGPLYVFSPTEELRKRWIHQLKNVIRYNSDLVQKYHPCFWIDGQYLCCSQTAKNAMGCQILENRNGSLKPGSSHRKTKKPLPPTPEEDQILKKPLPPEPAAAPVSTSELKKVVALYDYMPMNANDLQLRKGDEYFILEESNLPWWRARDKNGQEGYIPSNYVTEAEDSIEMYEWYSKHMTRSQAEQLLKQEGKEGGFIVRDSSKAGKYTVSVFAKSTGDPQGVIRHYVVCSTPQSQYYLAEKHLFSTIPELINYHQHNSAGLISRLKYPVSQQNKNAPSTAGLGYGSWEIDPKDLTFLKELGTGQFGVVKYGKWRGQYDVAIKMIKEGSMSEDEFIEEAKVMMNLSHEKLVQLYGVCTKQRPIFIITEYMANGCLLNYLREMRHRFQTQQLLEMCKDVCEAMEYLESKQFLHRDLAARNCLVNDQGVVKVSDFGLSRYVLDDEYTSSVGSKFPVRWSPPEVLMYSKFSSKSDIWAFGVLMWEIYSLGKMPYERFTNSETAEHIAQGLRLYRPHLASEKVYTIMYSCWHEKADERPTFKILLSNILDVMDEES
In words: Covalent bonding assay, intact protein MALDI mass spectrometry. Format: binding. The note with it: 60 minutes incubation, 10-fold excess of compound to protein, room temperature. The procedure:
The following example describes testing certain compounds to determine whether they covalently bind to BTK. The full-length recombinant human Btk protein (Lot #619547Q; 0.35 mg/mL) was obtained from Invitrogen (Carlsbad, Calif.). Btk protein was diluted 2:3 in phosphate-buffered saline and stock concentration (10 mM) of compound was diluted 1:115 in 50% DMSO.
For all compounds, 1 μL of diluted compound was added to 5 μL of diluted protein. These mixtures were then incubated for 60 minutes at a 10-fold excess of compound to protein under room temperature (˜24° C.) conditions.
At the end of the incubation, 5 μL aliquots of the samples were diluted with 15 μL of 0.2% TFA prior to micro C4 ZipTipping® directly onto the MALDI target plate using sinapinic acid as the desorption matrix (10 mg/mL in 0.2% TFA:Acetonitrile 50:50). Samples were immediately analyzed on an ABSciex 4800 MALDI TOF-TOF mass spectrometer.
For intact protein mass measurement, the mass spectrometer was set in linear mode using a pulsed extraction setting of 81,500. Bovine serum albumin (BSA; Sigma, St Louis, Mo.) was used as the standard to calibrate the instrument. These values correspond to the percentage of total protein covalently modified by the tested compound after one hour incubation.
On to `C=CC(=O)Nc1cccc(Nc2nc(Nc3ccc(OCCO)cc3)ncc2F)c1` [Compound I-1, N-(3-((5-fluoro-2-((4-(2-hydroxyethoxyl)phenyl)amino)pyrimidin-4-yl)amino)phenyl)acrylamide], for which the MS % modification result was “B (31-69% modification)”.
The same measure for `C=CC(=O)Nc1cccc(Nc2nc(Nc3ccc(O)cc3)ncc2F)c1` [Compound I-3, N-(3-((5-fluoro-2-((4-hydroxyphenyl)amino)pyrimidin-4-yl)amino)phenyl)acrylamide]: “A (>70% modification)”; for `COCCOc1ccc(Nc2ncc(F)c(Nc3cccc(NC(=O)C(O)CO)c3)n2)cc1` (stereo not drawn) [Compound I-4, N-(3-((5-fluoro-2-((4-(2-methoxyethoxyl)phenyl)amino)pyrimidin-4-yl)amino)phenyl)-2,3-dihydroxypropanamide]: “C (<30% modification)”.
Take `O=C(Nc1cccc(Nc2nc(Nc3ccc(OCCO)cc3)ncc2F)c1)C(O)CO` (stereo not drawn) [Compound I-5, N-(3-((5-fluoro-2-((4-(2-hydroxyethoxyl)phenyl)amino)pyrimidin-4-yl)amino)phenyl)-2,3-dihydroxypropanamide]: the MS % modification entry is listed as “C (<30% modification)”.
In the case of `O=C(Nc1cccc(Nc2nc(Nc3ccc(O)cc3)ncc2F)c1)C(O)CO` (stereo not drawn) [Compound I-6, N-(3-((5-fluoro-2-((4-hydroxyphenyl)amino)pyrimidin-4-yl)amino)phenyl)-2,3-dihydroxypropanamide] it was “C (<30% modification)”.
The same measure for `COCCOc1ccc(Nc2ncc(F)c(Nc3cccc(NC(=O)C4CO4)c3)n2)cc1` (stereo not drawn) [Compound I-19, N-(3-((5-fluoro-2-((4-(2-methoxyethoxyl)phenyl)amino)pyrimidin-4-yl)amino)phenyl)oxirane-2-carboxamide]: “A (>70% modification)”.

Values taken from US9549927B2, “Heteroaryl compounds and uses thereof” (Celgene Avilomics Research, Inc., priority 2012, dated 2017).
